Experimental data reported in patent US11730815B2, “Stable liquid pharmaceutical compositions comprising bendamustine” (GOOD HEALTH, LLC, priority 2018, dated 2023).
In brackets after ≈: the same amount, converted by molar mass. Entries after “also recorded” stand apart in the source; their conditions may differ. One block for each compound: values may come before it.

How the values were obtained:
Format in all cases: physicochemical
[1] = Solubility of bendamustine in non-aqueous solvents; conditions: sonication; for solubility: organic solvent or mixture, thermodynamic from solid
Method: Bendamustine HCl was added in 5-10 mg increments to vials containing PG, PEG 200, PEG 300, PEG 400, and PEG 600, and the mixtures were sonicated. Sonication was stopped when the solution remained turbid after 8-10 minutes of sonication.
Note: The solubility might be slightly overestimated because of the generation of heat during long sonication.

[2] = Solubility of bendamustine in non-aqueous solvents in the presence of cyclodextrin; conditions: for solubility: organic solvent or mixture, thermodynamic from solid
Method: Bendamustine HCl was added to vials containing 50 mg of HPβCD per mL and PG, PEG 200, PEG 300, PEG 400, or PEG 600, and the mixtures were sonicated for about 8-10 minutes after each addition of bendamustine. The addition of bendamustine was stopped when the solutions remained turbid even after sonication for about 8-10 minutes.

[3] = Solubility of HPβCD in non-aqueous solvents; conditions: sonicated 10 minutes
Method: PG, PEG 200, PEG 300, PEG 400, and PEG 600 were added to vials containing hydroxy propyl-β-cyclodextrin (HPβCD) (50 mg) and sonicated for 10 minutes. […]

Compound: Cn1c(CCCC(=O)O)nc2cc(N(CCCl)CCCl)ccc21 [bendamustine, 4-(5-(bis(2-chloroethyl)amino)-1-methyl-1H-benzo[d]imidazol-2-yl)butanoic acid]
solubility ([1]; PEG 200 (non-aqueous solvent), in PEG 200): > 50 mg/mL
solubility ([1]; PEG 300 (non-aqueous solvent), in PEG 300): > 50 mg/mL
solubility ([1]; PEG 400 (non-aqueous solvent), in PEG 400): 25 to 30 mg/mL (≈ 69.8 to 83.7 mM)
solubility ([1]; PEG 600 (non-aqueous solvent), in PEG 600): 8 to 10 mg/mL (≈ 22.3 to 27.9 mM)
solubility ([1]; PG (non-aqueous solvent), in PG): > 50 mg/mL
Solubility of bendamustine ([1]; in PEG 200): adequate
Solubility of bendamustine ([1]; in PEG 300): adequate
Solubility of bendamustine ([1]; in PEG 400): insufficient
Solubility of bendamustine ([1]; in PEG 600): insufficient
Solubility of bendamustine ([1]; in PG): adequate
solubility ([2]; PEG 200 with 50 mg/mL HPβCD, in PEG 200 with 50 mg HPβCD per mL): 50 mg/mL
solubility ([2]; PEG 300 with 50 mg/mL HPβCD, in PEG 300 with 50 mg HPβCD per mL): 50 mg/mL
solubility ([2]; PEG 400 with 50 mg/mL HPβCD, in PEG 400 with 50 mg HPβCD per mL): 40 to 45 mg/mL
solubility ([2]; PEG 600 with 50 mg/mL HPβCD, in PEG 600 with 50 mg HPβCD per mL): 25 to 30 mg/mL
solubility ([2]; PG with 50 mg/mL HPβCD, in PG with 50 mg HPβCD per mL): 50 mg/mL
Appearance of resulting liquid mixture ([2]; in PEG 200 with 50 mg HPβCD per mL): Clear solution
Appearance of resulting liquid mixture ([2]; in PEG 300 with 50 mg HPβCD per mL): Clear solution
Appearance of resulting liquid mixture ([2]; in PEG 400 with 50 mg HPβCD per mL): Clear solution
Appearance of resulting liquid mixture ([2]; in PEG 600 with 50 mg HPβCD per mL): Clear solution
Appearance of resulting liquid mixture ([2]; in PG with 50 mg HPβCD per mL): Clear solution

Solubility of HPβCD: Physical observation ([3]; 50 mg HPβCD per mL of PEG 200): adequate; also recorded: Clear
Solubility of HPβCD: Physical observation ([3]; 50 mg HPβCD per mL of PEG 300): adequate; also recorded: Clear
Solubility of HPβCD: Physical observation ([3]; 50 mg HPβCD per mL of PEG 400): insoluble; also recorded: Turbid
Solubility of HPβCD: Physical observation ([3]; 50 mg HPβCD per mL of PEG 600): insoluble; also recorded: Turbid
Solubility of HPβCD: Physical observation ([3]; 50 mg HPβCD per mL of PG): adequate; also recorded: Clear
Compound: hydroxy propyl-β-cyclodextrin [HPβCD]
